In the experiment the target is T1, CDC42 BPB (MRCKB) (Homo sapiens, UniProt Q9Y5S2).
T1 construct: purchased Thermo Fisher Scientific (Life Technologies) SelectScreen
In words: SelectScreen Z'LYTE. The experiment is classed as biochemical. A digest of the protocol:
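SelectScreen broad panel; activity (Z'LYTE, Adapta) plus binding formats. ATP: Km app for CSF1R Z'LYTE; 10 for CAMK1 Adapta. Readout = % per kinase.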

T1 sequence (Q9Y5S2 whole entry): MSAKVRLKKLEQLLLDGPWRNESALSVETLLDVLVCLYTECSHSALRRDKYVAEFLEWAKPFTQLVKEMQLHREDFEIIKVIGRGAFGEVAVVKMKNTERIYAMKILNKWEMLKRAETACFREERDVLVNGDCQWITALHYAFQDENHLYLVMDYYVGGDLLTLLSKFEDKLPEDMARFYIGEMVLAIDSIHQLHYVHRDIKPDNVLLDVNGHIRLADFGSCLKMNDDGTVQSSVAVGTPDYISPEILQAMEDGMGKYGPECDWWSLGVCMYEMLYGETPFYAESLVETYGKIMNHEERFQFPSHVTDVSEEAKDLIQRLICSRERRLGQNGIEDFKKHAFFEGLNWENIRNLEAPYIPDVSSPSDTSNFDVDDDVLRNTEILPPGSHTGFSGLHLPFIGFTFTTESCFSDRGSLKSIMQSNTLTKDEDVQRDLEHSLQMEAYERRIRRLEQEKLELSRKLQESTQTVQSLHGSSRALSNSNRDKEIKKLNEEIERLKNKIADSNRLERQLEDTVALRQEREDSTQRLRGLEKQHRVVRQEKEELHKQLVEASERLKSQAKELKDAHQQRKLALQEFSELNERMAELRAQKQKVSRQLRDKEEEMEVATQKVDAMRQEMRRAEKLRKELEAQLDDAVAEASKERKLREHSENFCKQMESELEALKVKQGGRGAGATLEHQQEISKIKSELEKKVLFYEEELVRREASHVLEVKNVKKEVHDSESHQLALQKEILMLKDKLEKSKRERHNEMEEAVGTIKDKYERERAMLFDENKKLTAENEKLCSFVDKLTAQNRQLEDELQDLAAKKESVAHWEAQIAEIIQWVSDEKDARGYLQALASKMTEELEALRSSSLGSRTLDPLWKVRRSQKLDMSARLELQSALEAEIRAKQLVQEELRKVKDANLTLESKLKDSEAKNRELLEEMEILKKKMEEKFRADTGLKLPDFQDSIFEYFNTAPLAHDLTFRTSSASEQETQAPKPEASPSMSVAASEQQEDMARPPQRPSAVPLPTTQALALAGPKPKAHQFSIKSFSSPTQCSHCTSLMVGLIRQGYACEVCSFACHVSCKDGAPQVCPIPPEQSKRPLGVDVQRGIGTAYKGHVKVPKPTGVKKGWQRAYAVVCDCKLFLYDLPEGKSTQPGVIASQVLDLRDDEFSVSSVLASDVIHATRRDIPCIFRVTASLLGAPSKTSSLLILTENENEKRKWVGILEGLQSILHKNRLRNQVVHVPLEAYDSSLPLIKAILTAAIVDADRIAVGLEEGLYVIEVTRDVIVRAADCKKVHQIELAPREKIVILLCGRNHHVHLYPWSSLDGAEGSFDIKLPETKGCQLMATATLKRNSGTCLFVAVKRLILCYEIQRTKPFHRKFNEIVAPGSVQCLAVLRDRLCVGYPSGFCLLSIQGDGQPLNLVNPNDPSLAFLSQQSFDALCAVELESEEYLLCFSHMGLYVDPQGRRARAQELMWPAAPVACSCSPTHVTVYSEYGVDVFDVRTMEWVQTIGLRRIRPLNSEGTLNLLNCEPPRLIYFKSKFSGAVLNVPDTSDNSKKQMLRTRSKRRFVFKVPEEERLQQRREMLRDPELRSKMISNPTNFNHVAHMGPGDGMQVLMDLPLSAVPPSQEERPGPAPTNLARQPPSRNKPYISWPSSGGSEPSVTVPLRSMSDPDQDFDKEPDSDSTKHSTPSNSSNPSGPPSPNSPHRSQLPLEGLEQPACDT

In the case of `CN(C(=O)CN1CCOCC1)c1ccc2sc3c(-c4cccc5c(=O)cc(N6CC7CCC(C6)O7)oc45)cccc3c2c1` [NU5455], the inhibition at 1 µM was -2.5%.

For orientation: inhibition means the drop in the measured response relative to a control, in per cent.

The values above are taken from article PMC6934184, “Selective DNA-PKcs inhibition extends the therapeutic index of localized radiotherapy and chemotherapy” (The Journal of Clinical Investigation, 2019).
